In patent publication US10071077B2, “Use of enoximone in the treatment of atopic immune-related disorders, in pharmaceutical composition as well as in pharmaceutical preparation” (BREAKTHROUGH MEDICAL RESEARCH B.V., priority 2014, dated 2018):

Key:
[1] = system: patients with asthma; assay: Trials 1-3: treatment of asthma patients with enoximone; type: in vivo, human
Experimental: A patient was to be operated in connection with a mammary carcinoma. They had known difficult-to-treat asthma and before the operation they received 30 mg prednisone per day as extra medication in addition to their beta-2 agonists and parasympatholytics treatment, but their breathing remained considerably obstructed. Ten minutes before the start of the anaesthesia they were given 25 mg enoximone intravenously. […] Ultimately, after a single administration of enoximone, they stayed symptom-free for two months. Based on the above experience, a second patient was treated. According to their lung specialist, they suffered from untreatable asthma and had been completely bed-ridden for a long time, among other reasons due to high doses of the traditional medication (next to some other drugs they received 50 mg prednisone per day). Inhalation therapy worked for a few minutes only due to the severe bronchoconstriction, the drying of the airways and the consequential sticky obstructive mucus. The patient received 20 mg enoximone orally in two doses of 10 mg at a 15 minutes interval. […] They remained symptom-free for 7 days. During the first day after the first administration, the patient coughed a lot, which loosened the sticky mucus. After 7 days, they received another 10 mg dose of enoximone orally, after which they again remained symptom-free for 7 days. They were ultimately able to drastically reduce their prednisone use to 5 mg per day (complete phasing out was not possible in connection with their Mixed Connected Tissue Disease). They were able to build up their condition relatively quickly with a maintenance dose of 10 mg of enoximone once every 4 days. After 3 months, they were able to perform their normal household activities again and go back to work. After another month, they were even able to do some sport with caution. Following trials 1 and 2, several patients with light to severe asthma symptoms, who up to that time had been treated exclusively with the traditional therapy with little or no results, were also treated with enoximone. […] Their individual dosage depended on the severity of the disorder. The dosage ranged from 0.1 to 0.3 mg/kg body weight, mostly in a maintenance dosage of twice a week, based on the time of recurrence of the symptoms.

[2] = system: HDM allergic airway inflammation; assay: HDM asthma model, lower enoximone treatment frequency; type: in vivo, mice
Experimental: To induce airway inflammation, mice were anaesthetized with isofluorane and treated intratracheally (i.t.) with 1-10 μg house dust mite (HDM; Greer Laboratories) allergen extract in 80 μL phosphate buffered saline (PBS) on day 0 or using PBS only. Ten days later, anesthetized mice were challenged with 1-10 μg HDM in 50 μL PBS intranasally (i.n.) for 5 consecutive days. Mice were sacrificed 24 hr after last challenge and broncho alveolar lavage was performed by flushing the lungs 3 times with 1 ml PBS containing Ethylenediaminetetraacetic acid (EDTA, Sigma-Aldrich).
Next we investigate if it is possible to lower the active enoximone treatment frequency when given it admixed to the HDM challenge solution (FIG. 2A). We compare the daily treatment frequency with once in two days (each other day) and once in three days. Mice treated with HDM admixed with diluent show clear eosinophilic airway inflammation (FIG. 2B). […] Moreover along this line also numbers of T-cells drop when treated with enoximone (FIG. 2B). […] Moreover the proportion of IL-4 producing T-cells is lower when enoximone is given less frequently than daily (FIG. 3).
(A) Experimental HDM asthma design showing intratracheal sensitisation (s) of 10 μg HDM or PBS as control and challenge (c) with 10 μg HDM intra nasal. The following schedules were used diluent (d) (5 μl) during challenge (for 5 days ddddd), enoximone (5 μl 5 mg/ml) during challenge (for 5 days eeeee), enoximone once in two days (edede) or (deded) and once in three days enoximone (edded). (B) Total cells and quantification of flow cytometric analyses of eosinophils and CD4 T-cells in BAL of PBS treated (black bars) and several frequencies of enoximone treated mice (gray bars). Results are expressed as means±SEM.
FIG. 3 Quantification of flow cytometric analyses of cytokine producing CD4 T-cells and proportion of IL-4 positive CD4 T-cells in BAL. Results are expressed as means±SEM. n=3-8 animals per group. Statistical evaluations were performed only between different treatments of groups (*p<0.05).

## CSc1ccc(C(=O)c2[nH]c(=O)[nH]c2C)cc1 [enoximone, 1,3-dihydro-4-methyl-5-[4-(methylthio)benzoyl]-2H-imidazol-2-on]
[1]; Trial 1: after a single administration of 25 mg intravenously
  symptom-free period: two months
[1]; Trial 1: person, difficult-to-treat asthma, 25 mg intravenously
  time to disappearance of asthma symptoms: within a few minutes
[1]; Trial 2: after 20 mg orally in two doses of 10 mg at a 15 minutes interval
  symptom-free period: 7 days
[1]; Trial 2: after another 10 mg dose orally after 7 days
  symptom-free period: 7 days
[1]; Trial 2: maintenance dose of 10 mg once every 4 days
  time until able to perform normal household activities and go back to work: 3 months
[1]; Trial 2: previously 50 mg prednisone per day
  prednisone use after reduction: 5 mg per day
[1]; Trial 2: untreatable asthma, after first oral dose of 10 mg
  time to disappearance of asthma symptoms: within two minutes
[1]; Trial 3: 0.1 to 0.3 mg/kg body weight, mostly twice a week
  progress of patients with light to severe asthma symptoms: remarkable and fast progress
[1]; Trial 3: five patients
  allergic and immune-related symptoms: substantially milder or even disappeared altogether
[1]; administered orally in cases of asthma
  time to improved breathing: within ten minutes
[1]; all the patients treated
  time to reaction: within a few minutes
[1]; all the patients treated, after only one dose
  symptom-free period: remained days or weeks symptom-free
[1]; as maintenance medication
  duration of improvement of the dyspnoea symptoms: from a few days to several weeks or several months
[1]; compared with the half life of 4 hours
  duration of the effects of the compound: lasting well beyond a month
[1]; disappeared after one day, lowering the dose offered a solution
  side effects: two patients reported headaches on the day of intake
[1]; intravenous administration in cases of asthma
  time to improved breathing: within as little as one minute
[2]; 25 μg enoximone admixed with HDM challenge, FIG. 2B
  numbers of T-cells in BAL: drop
[2]; 25 μg enoximone admixed with HDM challenge, FIG. 3
  number of cytokine (IL-4, IL-5, IL-13, IL-17 and IFNγ) producing T-cells in BAL: drop in number
[2]; 25 μg enoximone admixed with HDM challenge, given every day, FIG. 2B
  eosinophilic inflammation: clear reduction
[2]; 25 μg enoximone admixed with HDM challenge, once in three days, FIG. 2B
  eosinophilic inflammation: clear reduction
[2]; 25 μg enoximone admixed with HDM challenge, once in two days (each other day), FIG. 2B
  eosinophilic inflammation: clear reduction
[2]; enoximone given less frequently than daily, FIG. 3
  proportion of IL-4 producing T-cells: lower
